Experimental data published in patent US20250230193A1, “CYCLIC COMPOUND HAVING SELECTIVE KRAS INHIBITORY EFFECT ON HRAS AND NRAS” (CHUGAI SEIYAKU KABUSHIKI KAISHA, priority 2022, published 2025).
Where a SMILES comes first, the peptide text is derived from it. Bridges are numbered along the chain shown (N, C = ends). [ ]: non-standard residue; d: D form. The star is where a group is joined. hPhe(3,5-F2-4-CF3) = N[C@@H](CCc1cc(F)c(C(F)(F)F)c(F)c1)C(=O)O; NPrPhe(4-CF3) = CCCN[C@@H](Cc1ccc(C(F)(F)F)cc1)C(=O)O; NMeGly(cPent) = CN[C@H](C(=O)O)C1CCCC1; Ac4c(3,3-F2) = NC1(C(=O)O)CC(F)(F)C1; NMeD = CN[C@@H](CC(=O)O)C(=O)O; NMeL = CN[C@@H](CC(C)C)C(=O)O; Morpholide = C1CN(*)CCO1; Aze = O=C(O)[C@@H]1CCN1; Sar = CNCC(=O)O

What was measured:
[1] = target: GDP-bound HRAS wild-type protein (Homo sapiens, UniProt P01112); assay: Binding to HRAS by surface plasmon resonance (SPR), Single Cycle Kinetics
Chain of GDP-bound HRAS wild-type protein (P01112 whole entry): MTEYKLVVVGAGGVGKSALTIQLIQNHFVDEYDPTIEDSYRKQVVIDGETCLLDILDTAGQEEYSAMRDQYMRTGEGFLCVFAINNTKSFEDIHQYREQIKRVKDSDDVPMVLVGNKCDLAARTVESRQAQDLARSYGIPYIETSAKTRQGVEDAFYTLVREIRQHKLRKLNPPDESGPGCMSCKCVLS

[2] = target: GDP-bound NRAS wild-type protein (Homo sapiens, UniProt P01111); assay: Binding to NRAS by surface plasmon resonance (SPR), Single Cycle Kinetics
Chain of GDP-bound NRAS wild-type protein (P01111 whole entry): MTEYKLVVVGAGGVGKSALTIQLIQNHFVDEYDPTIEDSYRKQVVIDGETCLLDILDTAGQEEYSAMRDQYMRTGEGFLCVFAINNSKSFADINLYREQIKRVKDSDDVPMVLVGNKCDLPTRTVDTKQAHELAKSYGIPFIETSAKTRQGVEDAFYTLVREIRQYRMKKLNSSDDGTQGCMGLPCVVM

[3] = SPR, GDP-bound HRAS wild-type vs GDP-bound KRAS wild-type
[4] = SPR, GDP-bound NRAS wild-type vs GDP-bound KRAS wild-type
[5] = SPR, GDP-bound wild-type proteins

## CCCN1C(=O)CN(C)C(=O)[C@@H]2CCN2C(=O)[C@H]([C@@H](C)CC)NC(=O)[C@H](CC(C)C)N(C)C(=O)C[C@@H](C(=O)N2CCOCC2)N(C)C(=O)[C@H](C2CCCC2)N(C)C(=O)C2(CC(F)(F)C2)NC(=O)[C@@H]2CCCN2C(=O)[C@H](CCc2cc(F)c(C(F)(F)F)c(F)c2)NC(=O)CN(C)C(=O)[C@@H]1Cc1ccc(C(F)(F)F)cc1 [PP0783] ([NMeL]I[Aze][Sar][NPrPhe(4-CF3)][Sar][hPhe(3,5-F2-4-CF3)]P[Ac4c(3,3-F2)][NMeGly(cPent)][NMeD]-Morpholide; lactam N-11)
[1]; SPR
  HRAS/KRAS (ratio of KD value with respect to GDP-bound HRAS wild-type protein to KD value with respect to KRAS): B (a compound having 3 or more and less than 10 is denoted as B)
[2]; SPR
  NRAS/KRAS (ratio of KD value with respect to GDP-bound NRAS wild-type protein to KD value with respect to KRAS): B (a compound having 3 or more and less than 10 is denoted as B)

## CCC[C@@H]1C[C@H]2C(=O)NC3(CCCC3)C(=O)N(C)[C@@H](C3CCCC3)C(=O)N(C)[C@H](C(=O)N(C)C)CC(=O)N(C)[C@@H](CC(C)C)C(=O)N[C@@H]([C@@H](C)CC)C(=O)N(C)CC(=O)N(C)[C@H]3C/C=C\CCN(C3=O)[C@@H](Cc3ccc(C)cc3)C(=O)N(C)CC(=O)N[C@@H](CCc3cc(F)c(C(F)(F)F)c(F)c3)C(=O)N2C1 [PP2193]
[1]; [3]
  HRAS/KRAS (ratio of KD value with respect to HRAS to KD value with respect to KRAS): A (a compound having 10 or more and less than 20 is denoted as A)
[2]; [4]
  NRAS/KRAS (ratio of KD value with respect to NRAS to KD value with respect to KRAS): A (a compound having 10 or more and less than 20 is denoted as A)

## CCCN(C)C(=O)[C@@H]1CC(=O)N(C)[C@@H](COC)C(=O)N[C@@H]([C@@H](C)CC)C(=O)N(C)CC(=O)N(C)[C@H]2C/C=C\CCN(C2=O)[C@@H](Cc2ccc(C(F)(F)F)cc2)C(=O)N(C)CC(=O)N[C@@H](CCc2cc(F)c(C(F)(F)F)c(F)c2)C(=O)N2CCC[C@H]2C(=O)NC2(CC(C)(C)C2)C(=O)N(C)[C@@H](C2CCCC2)C(=O)N1C [PP1729]
[1]; KD ratio, GDP-bound HRAS wild-type vs GDP-bound KRAS wild-type, SPR
  HRAS/KRAS (ratio of KD value for HRAS to KD value for KRAS): A (a compound having 10 or more and less than 20 is denoted as A)
[2]; KD ratio, GDP-bound NRAS wild-type vs GDP-bound KRAS wild-type, SPR
  NRAS/KRAS (ratio of KD value for NRAS to KD value for KRAS): AA (a compound having 20 or more is denoted as AA)

## CCC[C@H]1C(=O)N[C@@H](C(CC)CC)C(=O)N(C)CC(=O)N(C)[C@H]2C/C=C\CCN(C2=O)[C@@H](Cc2ccc(C)cc2)C(=O)N(C)CC(=O)N[C@@H](CCc2ccc(C(F)(F)F)c(Cl)c2)C(=O)N2C[C@H](OCC)C[C@H]2C(=O)NC2(CC(C)(C)C2)C(=O)N(C)[C@@H](CC(C)(C)C)C(=O)N(C)[C@H](C(=O)N(C)C)CC(=O)N1C [PP2207]
[1]; [3]
  HRAS/KRAS (ratio of KD value with respect to HRAS to KD value with respect to KRAS): A (a compound having 10 or more and less than 20 is denoted as A)
[2]; [4]
  NRAS/KRAS (ratio of KD value with respect to NRAS to KD value with respect to KRAS): A (a compound having 10 or more and less than 20 is denoted as A)

## CCCO[C@@H]1C[C@H]2C(=O)NC3(CC(C)(C)C3)C(=O)N(C)[C@@H](C3CCCC3)C(=O)N(C)[C@H](C(=O)N(C)CC)CC(=O)N(C)[C@H]3CCCc4ccc(cc4)C[C@@H](C(=O)N(C)CC(=O)N[C@@H](CCc4ccc(Cl)c(Cl)c4)C(=O)N2C1)N1CC/C=C\C[C@@H](C1=O)N(C)C(=O)CN(C)C(=O)[C@H]([C@@H](C)CC)NC3=O [PP3089]
[1]; [5]
  HRAS/KRAS (ratio of KD value with respect to GDP-bound HRAS wild-type protein to KD value with respect to KRAS): B (a compound having 3 or more and less than 10 is denoted as B)
[2]; [5]
  NRAS/KRAS (ratio of KD value with respect to GDP-bound NRAS wild-type protein to KD value with respect to KRAS): B (a compound having 3 or more and less than 10 is denoted as B)

## CCO[C@@H]1C[C@H]2C(=O)NC3(CCC3)C(=O)N(C)[C@@H](C3CCCC3)C(=O)N(C)[C@H](C(=O)N(C)C)CC(=O)N(C)[C@@H](CC3CCCC3)C(=O)N[C@@H]([C@@H](C)CC)C(=O)N(C)CC(=O)N(C)[C@H]3C/C=C\CCN(C3=O)[C@@H](Cc3ccc(C)cc3)C(=O)N(C)CC(=O)N[C@@H](CCc3ccc(C4CC4)c(Cl)c3)C(=O)N2C1 [PP2684]
[1]; class symbols
  HRAS/KRAS (ratio of KD value with respect to GDP-bound HRAS wild-type protein to KD value with respect to KRAS): A (a compound having 10 or more and less than 20 is denoted as A)
[2]; class symbols
  NRAS/KRAS (ratio of KD value with respect to GDP-bound NRAS wild-type protein to KD value with respect to KRAS): A (a compound having 10 or more and less than 20 is denoted as A)

## CCO[C@@H]1C[C@H]2C(=O)NC3(CC(C)(C)C3)C(=O)N(C)[C@@H](C3CCCC3)C(=O)N(C)[C@H](C(=O)N(CC)CC)CC(=O)N(C)[C@@H](COC)C(=O)N[C@@H]([C@@H](C)CC)C(=O)N(C)CC(=O)N(C)[C@H]3C/C=C\CCN(C3=O)[C@@H](Cc3ccc(C)cc3)C(=O)N(C)CC(=O)N[C@@H](CCc3ccc(C(F)(F)F)c(OC)c3)C(=O)N2C1 [PP2398]
[1]; [3]
  HRAS/KRAS (ratio of KD value with respect to HRAS to KD value with respect to KRAS): A (a compound having 10 or more and less than 20 is denoted as A)
[2]; [4]
  NRAS/KRAS (ratio of KD value with respect to NRAS to KD value with respect to KRAS): A (a compound having 10 or more and less than 20 is denoted as A)
